We go through two molecules from paper PMC4388511 (PLoS ONE, 2015).

Like-named read-outs stand apart in the source and are kept apart here.

Experiment [1] deals with T1, serotonin 5-HT2C receptor (Homo sapiens, UniProt P28335).
T1 construct: gene HTR2C; c-myc-5-HT2C-Cerulean
Description: facilitation of morphine-induced MOP-YFP endocytosis in HEK293 cells co-expressing 5-HT2C, at […]. It counts as cell-based.

In experiment [2] the target is T1, serotonin 5-HT2C receptor. Described as above. It is filed as cell-based. This is another data set of the same source.

T1 sequence (P28335 33-458): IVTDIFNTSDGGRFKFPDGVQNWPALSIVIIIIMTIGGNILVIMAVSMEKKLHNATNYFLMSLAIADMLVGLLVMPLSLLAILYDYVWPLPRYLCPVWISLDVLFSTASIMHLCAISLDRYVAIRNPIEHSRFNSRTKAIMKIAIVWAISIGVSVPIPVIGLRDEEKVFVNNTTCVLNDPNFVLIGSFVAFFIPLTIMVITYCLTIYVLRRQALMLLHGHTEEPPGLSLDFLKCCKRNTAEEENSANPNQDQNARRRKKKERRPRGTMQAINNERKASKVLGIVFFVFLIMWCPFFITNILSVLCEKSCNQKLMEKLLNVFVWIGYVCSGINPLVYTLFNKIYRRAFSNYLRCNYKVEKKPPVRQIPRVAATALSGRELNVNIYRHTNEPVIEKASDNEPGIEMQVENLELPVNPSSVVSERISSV
T1 sequence (P35372 whole entry partner): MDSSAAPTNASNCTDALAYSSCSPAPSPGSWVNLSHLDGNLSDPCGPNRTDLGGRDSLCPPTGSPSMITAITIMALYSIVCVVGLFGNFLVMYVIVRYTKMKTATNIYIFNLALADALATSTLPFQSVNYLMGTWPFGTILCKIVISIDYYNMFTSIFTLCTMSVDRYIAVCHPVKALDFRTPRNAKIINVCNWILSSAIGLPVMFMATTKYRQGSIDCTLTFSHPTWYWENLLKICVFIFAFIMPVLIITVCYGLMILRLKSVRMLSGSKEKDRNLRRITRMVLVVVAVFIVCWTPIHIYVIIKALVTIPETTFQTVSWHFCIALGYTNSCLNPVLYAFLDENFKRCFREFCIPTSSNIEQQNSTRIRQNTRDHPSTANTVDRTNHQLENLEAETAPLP

`COc1cc(CC(C)N)c(OC)cc1I` (racemic) [DOI]: in experiment [1], the “Emax (no. vesicles/cell)” value is 8.18 ± 1.31 vesicles/cell (Emax, with morphine). For the molecule `O=C1Nc2cc(Cl)c(Cl)cc2N2CCNCC12` (centres unmarked) [WAY161503], the “Emax (no. vesicles/cell)” value in experiment [2] is 9.08 ± 1.88 vesicles/cell (Emax, with morphine).
